Experimental data from patent US7247634B2, “Rifamycin derivatives effective against drug-resistant microbes” (Cumbre Pharmaceuticals Inc., priority 2004, dated 2007).
Values after ≈ are worked out from the molar mass of the structure shown.

Columns and labels:
Format in all cases: cell-based
[1] = test system: Streptococcus pneumoniae ATCC6303; assay: MIC, microbroth dilution (NCCLS); conditions: rifS strain, THY Broth with 1 mg/mL catalase, 5% CO2, 37° C., read-out: Antimicrobial activity (MIC)
[2] = test system: Haemophilus influenzae ATCC10211; assay: MIC, microbroth dilution (NCCLS); conditions: rifS strain, BHI Broth with NAD and hematin, 37° C., read-out: Antimicrobial activity (MIC)
[3] = test system: Streptococcus pyogenes ATCC19615; assay: MIC, microbroth dilution (NCCLS); conditions: rifS strain, THY Broth, 37° C., read-out: Antimicrobial activity (MIC)
[4] = test system: Staphylococcus epidermidis ATCC12228; assay: MIC, microbroth dilution (NCCLS); conditions: rifS strain, Cation-Adjusted Mueller-Hinton Broth, 37° C., read-out: Antimicrobial activity (MIC)
[5] = test system: Enterococcus faecalis ATCC29212; assay: MIC, microbroth dilution (NCCLS); conditions: rifS strain, BHI Broth, 37° C., read-out: Antimicrobial activity (MIC)
[6] = test system: Staphylococcus aureus ATCC29213 rpoB^H418Y; assay: microbe, parasite or virus in culture; conditions: ATCC29213, read-out: Antimicrobial activity (MIC)
Protocol: (§1) Representative compounds were assayed for antimicrobial activity as follows: Minimum Inhibitory Concentrations (“MICs”) were determined by the microbroth dilution method as per NCCLS guidelines (National Committee for Clinical Laboratory Standards. 2000. Methods for dilution antimicrobial susceptibility tests for bacteria that grow aerobically, 5th ed. M7-A5. National Committee for Clinical Laboratory Standards, Wayne, Pa.), except that all growth incubations were conducted at 37° C. Bacterial cultures were tested in the following bacteriological media: S. aureus, S. epidermidis, and E. coli in Cation-Adjusted Mueller-Hinton Broth, S. pneumoniae in THY Broth supplemented with 1 mg/mL catalase under 5% CO2 atmosphere, S. pyogenes in THY Broth, E. faecalis in BHI Broth, H. influenzae in BHI Broth supplemented with 0.75 μL of 1 mg/mL NAD and 150 μL of 1 mg/ml hematin per 5 mL, and M. smegmatis in Middlebrook Broth plus ADC Enrichment.
(§2) S. aureus ATCC 29213 RpoB^H418Y is a rifampin-resistant strain with a mutation in RNA polymerase, the biological target of rifamycin antibiotics. […] S. aureus EN1252a gyrA^S84L grlA^S80F is a quinolone-resistant strain due to double mutations to DNA gyrase and topoisomerase IV, the two biological targets for quinolone antibiotics.

[7] = test system: Staphylococcus aureus ATCC29213 rpoB^D417Y; assay: microbe, parasite or virus in culture; conditions: ATCC29213, read-out: Antimicrobial activity (MIC)
Protocol: as §1, §2

[8] = test system: Staphylococcus aureus EN1252a gyrA^S84L grlA^S80F; assay: microbe, parasite or virus in culture; conditions: read-out: Antimicrobial activity (MIC)
Protocol: as §1, §2

[9] = test system: Escherichia coli ATCC25922; assay: MIC, microbroth dilution (NCCLS); conditions: rifS strain, Cation-Adjusted Mueller-Hinton Broth, 37° C., read-out: Antimicrobial activity (MIC)
[10] = test system: Mycobacterium smegmatis ATCC700084; assay: MIC, microbroth dilution (NCCLS); conditions: Mycolicibacterium smegmatis, rifS strain, Middlebrook Broth plus ADC Enrichment, 37° C., read-out: Antimicrobial activity (MIC)
[11] = test system: Staphylococcus aureus ATCC29213; assay: MIC, microbroth dilution (NCCLS); conditions: rifS strain, Cation-Adjusted Mueller-Hinton Broth, 37° C., read-out: Antimicrobial activity (MIC)

Row | SMILES | MIC [1] | MIC [2] | MIC [3] | MIC [4] | MIC [5] | MIC [6] | MIC [7] | MIC [8] | MIC [9] | MIC [10] | MIC [11]
1 | CO[C@H]1/C=C/O[C@@]2(C)Oc3c(C)c(O)c4c(c3C2=O)C(=O)C(N2CCN(c3nc5c(cc3F)c(=O)c(C(=O)O)cn5-c3ccc(F)cc3F)CC2)=C(NC(=O)/C(C)=C\C=C\[C@H](C)[C@H](O)[C@@H](C)[C@@H](O)[C@@H](C)[C@H](OC(C)=O)[C@@H]1C)C4=O [Example 5, 3-[4-(3-Carboxy-1-(2,4-difluorophenyl)-6-fluoro-4-oxo-1,4-dihydronaphthyridin-7-yl)piperazin-1-yl]rifamycin S] | 0.008 to 0.125 µg/mL (≈ 0.00729 to 0.114 µM) | 0.125 to 2 µg/mL (≈ 0.114 to 1.82 µM) | 0.008 to 0.063 µg/mL (≈ 0.00729 to 0.0574 µM) | 0.008 to 0.063 µg/mL (≈ 0.00729 to 0.0574 µM) | 2 to 32 µg/mL (≈ 1.82 to 29.1 µM) | 0.06 to 16 µg/mL (≈ 0.0546 to 14.6 µM) | 0.06 to 32 µg/mL (≈ 0.0546 to 29.1 µM) | 0.004 to 0.5 µg/mL (≈ 0.00364 to 0.455 µM) | 0.125 to 8 µg/mL (≈ 0.114 to 7.29 µM) | 0.5 to 64 µg/mL | 0.004 to 0.5 µg/mL (≈ 0.00364 to 0.455 µM)
2 | CO[C@H]1/C=C/O[C@@]2(C)Oc3c(C)c(O)c4c(c3C2=O)C(=O)C(N2CCC(CCCC3CCN(c5nc6c(cc5F)c(=O)c(C(=O)O)cn6-c5ccc(F)cc5F)CC3)CC2)=C(NC(=O)/C(C)=C\C=C\[C@H](C)[C@H](O)[C@@H](C)[C@@H](O)[C@@H](C)[C@H](OC(C)=O)[C@@H]1C)C4=O [Example 6, 3-[4-[3-[1-[3-Carboxy-1-(2,4-difluorophenyl)-6-fluoro-4-oxo-1,4-dihydronaphthyridin-7-yl]piperidin-4-yl]propyl]piperidin-1-yl]rifamycin S] | 0.008 to 0.125 µg/mL (≈ 0.00654 to 0.102 µM) | 0.125 to 2 µg/mL (≈ 0.102 to 1.64 µM) | 0.008 to 0.063 µg/mL (≈ 0.00654 to 0.0515 µM) | 0.008 to 0.063 µg/mL (≈ 0.00654 to 0.0515 µM) | 2 to 32 µg/mL (≈ 1.64 to 26.2 µM) | 0.06 to 16 µg/mL (≈ 0.0491 to 13.1 µM) | 0.06 to 32 µg/mL (≈ 0.0491 to 26.2 µM) | 0.004 to 0.5 µg/mL (≈ 0.00327 to 0.409 µM) | 0.125 to 8 µg/mL (≈ 0.102 to 6.54 µM) | 0.5 to 64 µg/mL | 0.004 to 0.5 µg/mL (≈ 0.00327 to 0.409 µM)
3 | CO[C@H]1/C=C/O[C@@]2(C)Oc3c(C)c(O)c4c(c3C2=O)C(=O)C(N[C@@H]2CCN(c3cc5c(cc3F)c(=O)c(C(=O)O)cn5C3CC3)C2)=C(NC(=O)/C(C)=C\C=C\[C@H](C)[C@H](O)[C@@H](C)[C@@H](O)[C@@H](C)[C@H](OC(C)=O)[C@@H]1C)C4=O [Example 8, (R)-3-[1-(3-Carboxy-1-cyclopropyl-6-fluoro-4-oxo-1,4-dihydroquinolin-7-yl)-pyrrolidin-3-ylamino]rifamycin S] | 0.008 to 0.125 µg/mL (≈ 0.0078 to 0.122 µM) | 0.125 to 2 µg/mL (≈ 0.122 to 1.95 µM) | 0.008 to 0.063 µg/mL (≈ 0.0078 to 0.0615 µM) | 0.008 to 0.063 µg/mL (≈ 0.0078 to 0.0615 µM) | 2 to 32 µg/mL (≈ 1.95 to 31.2 µM) | 0.06 to 16 µg/mL (≈ 0.0585 to 15.6 µM) | 0.06 to 32 µg/mL (≈ 0.0585 to 31.2 µM) | 0.004 to 0.5 µg/mL (≈ 0.0039 to 0.488 µM) | 0.125 to 8 µg/mL (≈ 0.122 to 7.8 µM) | 0.5 to 64 µg/mL | 0.004 to 0.5 µg/mL (≈ 0.0039 to 0.488 µM)
4 | CO[C@H]1/C=C/O[C@@]2(C)Oc3c(C)c(O)c4c(c3C2=O)C(=O)C(N[C@H]2CCN(c3cc5c(cc3F)c(=O)c(C(=O)O)cn5C3CC3)C2)=C(NC(=O)/C(C)=C\C=C\[C@H](C)[C@H](O)[C@@H](C)[C@@H](O)[C@@H](C)[C@H](OC(C)=O)[C@@H]1C)C4=O [Example 9, (S)-3-[1-(3-Carboxy-1-cyclopropyl-6-fluoro-4-oxo-1,4-dihydroquinolin-7-yl)-pyrrolidin-3-ylamino]rifamycin S] | 0.008 to 0.125 µg/mL (≈ 0.0078 to 0.122 µM) | 0.125 to 2 µg/mL (≈ 0.122 to 1.95 µM) | 0.008 to 0.063 µg/mL (≈ 0.0078 to 0.0615 µM) | 0.008 to 0.063 µg/mL (≈ 0.0078 to 0.0615 µM) | 2 to 32 µg/mL (≈ 1.95 to 31.2 µM) | 0.06 to 16 µg/mL (≈ 0.0585 to 15.6 µM) | 0.06 to 32 µg/mL (≈ 0.0585 to 31.2 µM) | 0.004 to 0.5 µg/mL (≈ 0.0039 to 0.488 µM) | 0.125 to 8 µg/mL (≈ 0.122 to 7.8 µM) | 0.5 to 64 µg/mL | 0.004 to 0.5 µg/mL (≈ 0.0039 to 0.488 µM)
5 | COc1c(N2CCN(C3=C4NC(=O)/C(C)=C\C=C\[C@H](C)[C@H](O)[C@@H](C)[C@@H](O)[C@@H](C)[C@H](OC(C)=O)[C@H](C)[C@@H](OC)/C=C/O[C@@]5(C)Oc6c(C)c(O)c(c(c6C5=O)C3=O)C4=O)C(C)C2)c(F)cc2c(=O)c(C(=O)O)cn(C3CC3)c12 (stereo partly drawn) [Example 10, (R,S)-3-[4-(3-Carboxy-1-cyclopropyl-6-fluoro-8-methoxy-4-oxo-1,4-dihydroquinolin-7-yl)-2-methylpiperazin-1-yl]rifamycin S] | 0.008 to 0.125 µg/mL (≈ 0.00748 to 0.117 µM) | 0.125 to 2 µg/mL (≈ 0.117 to 1.87 µM) | 0.008 to 0.063 µg/mL (≈ 0.00748 to 0.0589 µM) | 0.008 to 0.063 µg/mL (≈ 0.00748 to 0.0589 µM) | 2 to 32 µg/mL (≈ 1.87 to 29.9 µM) | 0.06 to 16 µg/mL (≈ 0.0561 to 15 µM) | 0.06 to 32 µg/mL (≈ 0.0561 to 29.9 µM) | 0.004 to 0.5 µg/mL (≈ 0.00374 to 0.468 µM) | 0.125 to 8 µg/mL (≈ 0.117 to 7.48 µM) | 0.5 to 64 µg/mL | 0.004 to 0.5 µg/mL (≈ 0.00374 to 0.468 µM)
